Data from patent publication US20190038632A1 (BAYER PHARMA AKTIENGESELLSCHAFT, priority 2016, published 2019).
Where “and” joins values, the source holds several entries; their conditions need not be identical. Equal entries are not always repeated.

System: NHL patients
Assay: clinical study A: copanlisib therapy in NHL patients, best response and PFS, also by baseline tumor gene expression
Format: in vivo, human
Settings: for PFS (Independent*) Days / Best Response (Independent*): one line per subject; for PFS (Independent*) Days: censor status in column beside
[1] = mantle cell lymphoma patients (N = 2)

Source text: Best response status and progression-free survival (hereinafter referred to as “PFS”) from independent review assessment were used for gene expression analysis.
Bioinformatics and statistical analyses were done for all 24 NHL patients.
A weighted gene expression score (hereinafter referred to as “WGS”) reflecting the overall expression level for each gene set was generated from logistic regression and Cox proportional hazards models to assess the association with response status (best-response-WGS) and PFS (PFS-WGS), respectively.
Both the best-response-WGS as well as the PFS-WGS were in turn used in logistic regression or Cox regression models to assess the association of either WGS with the endpoints. Moreover, the raw best-response WGS was used to compute non-cross validated AUC estimates for responder (CR+PR) and non-responder (SD+PD) classifications.

## COc1c(OCCCN2CCOCC2)ccc2c1N=C(NC(=O)c1cnc(N)nc1)N1CCN=C21 [copanlisib]
CSTB, median gene expression level as cutoff, p=0.07
  HR for PFS: 3.3 (0.9-12)
CSTB, median gene expression level as cutoff, shorter-PFS group (high expression per text)
  median PFS days: 74 days
MT2A, median gene expression level as cutoff, p=0.30
  HR for PFS: 1.3 (0.8-2.2)
NHL patients with low BCR WGS (median cut-off 41.7)
  PFS: 62 days
NOP10, median gene expression level as cutoff, p=0.23
  HR for PFS: 1.9 (0.7-5.4)
Diffuse large B-cell lymphoma patients (N = 5)
  PFS (Independent*) Days: 56 days and 13 days and 49 days
Follicular lymphoma patients (N = 10)
  PFS (Independent*) Days: 53 days and 74 days and 28 days
Follicular lymphoma patients (N = 10), data cutoff February 2015
  Best Response (Independent*): CRu
High vs low BCR WGS, nominal Cox model p<0.0001
  HR for PFS: 0.035
High vs low GPR18 expression, nominal Cox model p<0.01
  HR for PFS: 0.17
[1]
  Best Response (Independent*): CRu
  PFS (Independent*) Days: 7 days
trans. indolent lymphoma patients (N = 2)
  PFS (Independent*) Days: 16 days and 42 days
